For experiment [1], the target named is T1, lipoxygenase (Homo sapiens, UniProt P09917).
T1 construct: endogenous in cells; host or cells: human PMN leucocytes isolated from heparinized blood
T1 sequence (P09917 1-674): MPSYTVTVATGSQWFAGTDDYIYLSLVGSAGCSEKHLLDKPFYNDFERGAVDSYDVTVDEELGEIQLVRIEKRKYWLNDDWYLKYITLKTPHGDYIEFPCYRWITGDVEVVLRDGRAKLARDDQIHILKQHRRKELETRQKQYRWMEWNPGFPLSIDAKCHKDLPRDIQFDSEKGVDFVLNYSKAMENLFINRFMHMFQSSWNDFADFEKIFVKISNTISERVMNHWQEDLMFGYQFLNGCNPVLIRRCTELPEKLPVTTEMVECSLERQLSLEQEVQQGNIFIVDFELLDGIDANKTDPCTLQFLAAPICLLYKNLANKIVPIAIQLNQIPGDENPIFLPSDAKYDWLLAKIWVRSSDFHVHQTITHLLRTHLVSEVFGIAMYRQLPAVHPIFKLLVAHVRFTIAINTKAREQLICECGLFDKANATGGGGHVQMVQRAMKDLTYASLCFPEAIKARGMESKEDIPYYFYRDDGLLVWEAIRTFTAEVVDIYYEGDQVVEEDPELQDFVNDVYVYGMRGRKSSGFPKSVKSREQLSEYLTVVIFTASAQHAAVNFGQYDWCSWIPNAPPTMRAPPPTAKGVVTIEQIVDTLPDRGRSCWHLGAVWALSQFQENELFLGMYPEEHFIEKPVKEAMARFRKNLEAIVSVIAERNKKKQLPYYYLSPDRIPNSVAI
The experiment is described as follows: Inhibition of LTB4 biosynthesis (lipoxygenase-inhibiting action) in human PMN leucocytes stimulated with ionophor A 23187. It counts as cell-based. As to conditions: 0.25 h; for inhibition at 10 µg/mL: concentration 10^-5 g/ml; for inhibition at 1 µg/mL: concentration 10^-6 g/ml. The protocol:
The human PMN leucocytes (>95%) used in the present example were obtained from heparinized complete blood by dextran sedimentation and subsequent density gradient separation (Ficoll-Paque) (compare A. Boyum, Scand. J. Immunol., 5, Suppl. 5, 9, 1976).
2×10^7 cells/ml were suspended in Dulbecco phosphate buffer containing Ca^2+ and were incubated with radioactively labelled arachidonic acid and the calcium ionophor A 23187 in the presence or absence of lipoxygenase inhibitor. After 15 minutes, the labelled lipoxygenase products were extracted from the acidified incubation medium and were separated by thin layer chromatography using a mobile phase mixture suitable for the leukotrienes (5-HETE-LTB4) (compare B. Jakschik et al., Biochem. Biophys. Res. Commun., 102, 624, 1981).
The distribution of the activity amongst the various metabolites was measured by a thin layer scanner. It is a measure of the lipoxygenase-inhibiting action of a test substance at a certain concentration.
The lipoxygenase metabolites were also additionally determined independently by means of high pressure liquid chromatography. This method enables the endogenous arachidonic acid metabolism to be studied with the aid of UV detection of the leukotrienes. In this method, the cells were treated as described above, with the exception that no radioactively labelled arachidonic acid was added exogenously. The high pressure liquid chromatography was carried out on Lichrosorb RP-18 (5 μm) columns. The mobile phase was methanol/water/glacial acetic acid 69/31/0.01. The flow rate was 1 ml/minute. Leukotriene B4 was determined at 280 nm and the HETE derivatives were determined at 232 nm, in each case by means of UV absorption.

Experiment [2] in a line: Antithrombotic action (prophylaxis of thromboses). It counts as in vivo. As to conditions: dose increased 100 times in comparison with nafazatrom.
Experiment [3] concerns leucocytes. The experiment is described as follows: Leucocyte stickiness, hamster cheek pouch venule. It counts as in vivo, Syrian golden hamsters. On the procedure:
The number of leucocytes which pass a certain section of a vessel serves as a simple model for measuring the stickiness of leucocytes (Bray, M. A. et al., Prostaglandins 22, 213 (1981)). The number of leucocytes counted will be greater, the lower the stickiness of the cells.
The pyrazolone derivatives described below were investigated in this model.
Male Syrian golden hamsters (80-100 g) were anaesthetized with Nembutal (i.p.; 60 mg/kg). After insertion of a PE 10 catheter into the a. femoralis, the animal was laid on a Duling dissecting platform (MVR 5, 423 (1973)) and the right cheek pouch was withdrawn by inserting a Q-Tip. It was carefully drawn into the envisaged part of the platform, stretched and fixed.
From the start of the dissection, 5 ml/minute of Superfusat flowedover the prepared cheek pouch. The temperature of the solution was 36° C. While treating the vessels with care, the upper layer tissue was separated longitudinally and folded back to the side. Under about 200-fold magnification, an area of about 1 cm^2 of connective tissue was carefully exposed. The animal was placed on the object stand of a microscope, together with the dissecting platform. A thermocouple was inserted into the left cheek pouch. The body temperature of the animal was thus monitored and kept at 36±0.3° C. with the aid of an IR lamp (250 watt).
The leucocyte stickiness was measured at about 500-fold magnification. A venule (30-40 μm .phi.) was selected in the exposed area. The number of leucocytes per unit time (minutes) which migrate past a certain section of this vessel were counted.
Intra-arterial administration of the pyrazolone derivatives in 1% strength aqueous Tylose suspension led to the following results: […]

Experiment [4] relates to 15-hydroxyprostaglandin dehydrogenase. As to conditions: Wong and McGiff 1982; cited from earlier work.
Experiment [5] deals with lipoxygenase. As to conditions: Busse et al. 1982; cited from earlier work.
The test system of experiment [6] is endogenous prostacyclin (PGI2) from the vascular endothelium. As to conditions: Vermylen 1979, Chamone 1981, McIntyre and Salzman 1981; cited from earlier work.

`CC(=O)OCC1=NN(CCOc2ccc3ccccc3c2)C(=O)C1`: in experiment [1], the inhibition (as a rule, the percentage by which the read-out fell short of the control) at 10 µg/mL amounted to 82% and the inhibition at 1 µg/mL stood at 36%.

Turning to `O=C1CC(CO)=NN1CCOc1ccc2ccccc2c1`, in experiment [1], the inhibition at 10 µg/mL was determined as 80%.

In experiment [1], `CC(C)CC1=NN(CCOc2ccc3ccccc3c2)C(=O)C1` returned an inhibition at 10 µg/mL of 100% and an inhibition at 1 µg/mL of 100%.

Regarding `CC(C)C1=NN(CCOc2ccc3ccccc3c2)C(=O)C1` [Compound 3-isopropyl], the “Effect in the prophylaxis of thromboses” value in experiment [2] is listed as “no effect can be detected”.

In experiment [1], `CCC1=NN(CCOc2ccc3c(Br)cccc3c2)C(=O)C1C` (stereo not drawn) gave an inhibition at 10 µg/mL of 100% and an inhibition at 1 µg/mL of 100%.

In experiment [1], `CC1=NN(CCOc2ccc(Cl)c(C)c2)C(=O)C1` gave an inhibition at 10 µg/mL of 100% and an inhibition at 1 µg/mL of 43%.

Turning to `Cc1cc(OC(=O)c2ccc(Cl)cc2)n(C(C)c2ccc(Cl)c(Cl)c2)n1` (stereo not drawn), the inhibition at 10 µg/mL in experiment [1] was determined as 80%.

As to `CCCCCCC1C(=O)N(CCOc2ccc3ccccc3c2)N=C1C` (stereo not drawn), in experiment [1], the inhibition at 10 µg/mL was 100% and the inhibition at 1 µg/mL is 93%.

As for `CCCC1=NN(CCOc2ccc3ccccc3c2)C(=O)C1` [Compound 3-n-propyl], the “Effect in the prophylaxis of thromboses” value in experiment [2] is reported as “no effect can be detected”.

As for `O=C1CC(Cc2ccccc2)=NN1CCOc1ccc2ccccc2c1` [Compound 3-benzyl], in experiment [2], the “Effect in the prophylaxis of thromboses” value is reported as “no effect can be detected”.

In experiment [1], `O=C1CC(C2CCCCC2)=NN1CCCc1ccccc1` had an inhibition at 10 µg/mL of 100% and an inhibition at 1 µg/mL of 71%.

As to `CC1=NN(CCOc2ccc3ccccc3c2)C(=O)C1C1C(=O)N(CCOc2ccc3ccccc3c2)N=C1C` (stereo not drawn), in experiment [1], the inhibition at 10 µg/mL came out at 50%.

Take `O=C1CC(c2ccccc2)=NN1CCCc1ccccc1`: in experiment [1], the inhibition at 10 µg/mL is 100% and testing at 1 µg/mL gave an inhibition of 81%.

As for `CC1=NN(CCc2cccc3ccccc23)C(=O)C1` [Compound 6], in experiment [3] (dose 1 mg/kg intra-arterial), the “Duration of action” value is 20 to 30 min and the “Increase in Leucocyte number (%)” value is listed as 30%.

In experiment [1], `CC1=NN(CCOc2ccc3ccccc3c2)C(=O)C1C` (stereo not drawn) [drawing 22] returned an inhibition at 10 µg/mL of 100% and an inhibition at 1 µg/mL of 83%.

With `CC1=NN(CCOc2ccc3ccccc3c2)C(=O)C1C` (stereo not drawn) [3,4-dimethyl derivative], the “Effect in the prophylaxis of thromboses” value in experiment [2] is given as “no effect can be detected”.

For the compound `CC1=NN(C(C)c2ccc(Cl)c(Cl)c2)C(=O)C1Cc1ccccc1` (stereo not drawn), the inhibition at 10 µg/mL in experiment [1] amounted to 100%.

In experiment [1], `CCCCC1C(=O)N(CCOc2ccc3c(Br)cccc3c2)N=C1C` (stereo not drawn) had an inhibition at 10 µg/mL of 100% and an inhibition at 1 µg/mL of 68%.

Turning to `Cc1cc(OC(=O)c2ccc3ccccc3c2)n(C(C)c2ccc(Cl)c(Cl)c2)n1` (stereo not drawn), in experiment [1], at 10 µg/mL the inhibition was 46%.

In experiment [1], `CC1=NN(CCc2cccc3ccccc23)C(=O)C1` [drawing 28] returned an inhibition at 10 µg/mL of 100% and an inhibition at 1 µg/mL of 58%.

Regarding `CC1=NN(CCOc2ccc3ccccc3c2)C(=O)C1` [nafazatrom, 3-methyl-1-[2-(2-naphthyloxy)-ethyl]-2-pyrazolin-5-one], the “Blockade of 15-hydroxyprostaglandin dehydrogenase, the PGI2-degrading enzyme” value in experiment [4] is “blocks”. Besides, the “Inhibition of lipoxygenase activity” value in experiment [5] is “inhibits lipoxygenase activity”. Further, the “Stimulation of endogenous prostacyclin (PGI2) from the vascular endothelium” value in experiment [6] is “can act as a stimulator”.

Take `CC1=NN(CCOc2ccc3ccccc3c2)C(=O)C1` [drawing 34, reference compound]: in experiment [1], 10 µg/mL produced 100% inhibition and the inhibition at 1 µg/mL stood at 58%.

On to `CC1=NN(CCOc2ccccc2-c2ccccc2)C(=O)C1` [Compound 4], for which, in experiment [3] (dose 0.1 mg/kg intra-arterial), the “Duration of action” value came to 40 min and the “Increase in Leucocyte number (%)” value came out at 35%.

Take `CCC1C(=O)N(CCOc2ccc3c(Br)cccc3c2)N=C1C` (stereo not drawn) [Compound 5]: in experiment [3] (dose 1 mg/kg intra-arterial), the “Duration of action” value was in the range of 30 to 50 min and the “Increase in Leucocyte number (%)” value turned out to be 200%.

Take `CCC1C(=O)N(CCOc2ccc3c(Br)cccc3c2)N=C1C` (stereo not drawn) [drawing 20]: in experiment [1], the inhibition at 10 µg/mL was 100% and the inhibition at 1 µg/mL stood at 100%.

Take `CC1=NN(CCOc2cccc3ccccc23)C(=O)C1`: in experiment [1], testing at 10 µg/mL gave an inhibition of 100% and the inhibition at 1 µg/mL amounted to 62%.

In the case of `CC1=NN(CCOc2ccccc2-c2ccccc2)C(=O)C1` [drawing 18], in experiment [1], the inhibition at 10 µg/mL turned out to be 100% and the inhibition at 1 µg/mL stood at 75%.

For the compound `COCC1=NN(CCOc2ccc3ccccc3c2)C(=O)C1`, in experiment [1], the inhibition at 10 µg/mL was 93% and at 1 µg/mL the inhibition was 40%.

The values above are taken from US4670460A, “Inhibiting lipoxygenase with pyrazolone derivatives” (Bayer Aktiengesellschaft, priority 1983, dated 1987).
